Data published in patent publication US9642825B2, “Bio-available N-acetyl creatine species and compositions thereof” (4141 HOLDINGS, LLC, priority 2014, dated 2017).
Values belong to the molecule of their own block, whether it stands above or below them.

Legend:
[1] = Dissolution time of 1 gram in distilled water at room temperature; type: physicochemical; conditions: 75 RPM
[2] = Chemical stability in aqueous media (conversion to creatinine); type: physicochemical
Experimental: As may be seen, 1 gram of N-acetyl creatine dissolves faster than other creatine derivatives, except creatine ethyl ester HCl, designated Creatine EE Hcl—(High Creatine Conversion) in FIG. 1. However, this shorter dissolution time may be deceiving. […] Instead, Creatine ethyl ester HCl decomposes into creatinine in a matter of 2 to 3 minutes. Creatinine is an excretory byproduct produced from the breakdown of creatine phosphate and offers none of the numerous benefits of creatine. In other words, Creatine ethyl ester HCl is unstable and its rapid conversion to creatinine makes it ineffective in delivering bioavailable creatine to the body.

[3] = Dissolution time of 1 gram in 0.1N HCl (pH 1.2); type: physicochemical; conditions: 1.000 Gram in 900 ml 0.1N HCl in Water, pH = 1.2, 73 C., 75 RPM
[4] = Solubility in water; type: physicochemical
[5] = test system: myostatin; conditions: cited from earlier work
[6] = test system: muscle strength and weightlifting performance; conditions: cited from earlier work
[7] = test system: person with myasthenia gravis; conditions: five grams daily, resistance training 3 times per week for 15 weeks; cited from earlier work
[8] = test system: human fibroblasts; conditions: cited from earlier work
[9] = 1.000 Gram in 900 ml Distilled Water, creatine types
[10] = 1.000 g in 900 ml Distilled Water, L-leucine versus N-acetyl L-leucine
[11] = creatine supplementation plus resistance training
[12] = versus placebo ingestion during resistance training

Molecule: CN(CC(=O)O)C(=N)N.O=C(O)CC(O)(CC(=O)O)C(=O)O [Creatine Citrate]
Time (Minutes) to dissolve [1, 9]: 10.10 min

Molecule: CN(CC(=O)O)C(=N)N.O [Creatine Monohydrate]
Time (Minutes) to dissolve [1, 9]: 14.42 min

Molecule: CN(CC(=O)O)C(=N)N.O=[N+]([O-])O [Creatine Nitrate]
Time (Minutes) to dissolve [1, 9]: 9.12 min

stability in solution (in words) [2]: unstable | Time (Minutes) to dissolve [3]: 0.95 min | Time (Minutes) to dissolve [1, 9]: 1.68 min
Molecule: CCOC(=O)CN(C)C(=N)N.Cl [Creatine ethyl ester HCl]

Time (Minutes) to dissolve [3]: 6.33 min | Time (Minutes) to dissolve [1, 9]: 25.02 min
Molecule: CN(CC(=O)N[C@@H](CCC(N)=O)C(=O)O)C(=N)N [Creatyl-L-Glutamine]

Time (Minutes) to dissolve [3]: 3.08 min | Time (Minutes) to dissolve [1, 9]: 9.05 min
Molecule: CC(C)C[C@H](NC(=O)CN(C)C(=N)N)C(=O)O [Creatyl-L-Leucine]

solubility in an aqueous medium (in words) ([4]; aqueous medium): very low water solubility | solubility of free leucine relative to N-acetyl-Leucine ([4]; aqueous medium): ten times greater | Time (Minutes) to dissolve [1, 10]: 12.82 min
Molecule: CC(C)C[C@H](N)C(=O)O [Leucine, L-leucine]

solubility in an aqueous medium (in words) ([4]; aqueous medium): extremely poor solubility | Time (Minutes) to dissolve [1, 10]: 120.17 min
Molecule: CC(=O)N[C@@H](CC(C)C)C(=O)O [N-Acetyl Leucine, N-acetyl L-leucine]

times more soluble than the parent compound creatine [4]: 30 times | increase of solubility with respect to creatine monohydrate ([4]; water): 30 fold | solubility in water ([4]; water): 400 grams/1 liter | stability in solution (in words) [2]: remains stable in solution | Time (Minutes) to dissolve [3]: 2.17 min | Time (Minutes) to dissolve [1, 9]: 3.70 min
Molecule: CC(=O)NC(=N)N(C)CC(=O)O [N-acetyl creatine]

Molecule: CN(CC(=O)O)C(=N)N [creatine, 2-(carbamimidoyl-methyl-amino) acetic acid]
myostatin blocked in muscle [5]: 60% | average increase in muscle strength [6, 11]: 20% | average increase in weightlifting performance (maximal repetitions at a given percent of maximal strength) [6, 11]: 26% | average increase in muscle strength, greater than following placebo [6, 12]: 8% | average increase in weightlifting performance, greater than following placebo [6, 12]: 14% | improved peak strength [7]: up to 37% | increase in body weight [7]: 7% | increase in fat free mass [7]: 4%

Molecule: CCCCCCCCCCCCOC(=O)CN(C)C(=N)N [dodecyl creatine ester]
increase compared with the endogenous creatine content [8]: 20 fold

Molecule: Creatine Taurinate
Time (Minutes) to dissolve [3]: 10.30 min | Time (Minutes) to dissolve [1, 9]: 15.85 min
